Reference: the CheMixHub viscosity set
Several values for one entry are separate records, joined by “and”; a condition that tells them apart may be missing. Equal values may be shown once. ± gives the uncertainty stated by the source.

What was measured:
[1] = xn = mol fraction of the nth substance listed

Oc1ccccc1Cl
Settings | viscosity
293.15 K, 101 kPa | 4.21 ± 0.05 mPa·s
298 K, 101 kPa | 3.376 ± 0.086 mPa·s
298 K, 101.3 kPa | 3.376 ± 0.029 mPa·s
298 K, 101.33 kPa | 3.36 ± 0.067 mPa·s
298.15 K, 101 kPa | 3.671 ± 0.13 mPa·s and 3.381 ± 0.039 mPa·s
303 K, 101 kPa | 2.927 ± 0.075 mPa·s
303 K, 101.3 kPa | 2.927 ± 0.027 mPa·s
303.15 K, 101 kPa | 3.08 ± 0.03 mPa·s and 2.821 ± 0.063 mPa·s and 2.998 ± 0.045 mPa·s
308 K, 101 kPa | 2.532 ± 0.065 mPa·s
308 K, 101.3 kPa | 2.532 ± 0.024 mPa·s
308.15 K, 101 kPa | 2.491 ± 0.056 mPa·s and 2.358 ± 0.029 mPa·s
313 K, 101 kPa | 2.191 ± 0.056 mPa·s
313 K, 101.3 kPa | 2.191 ± 0.021 mPa·s
313.15 K, 101 kPa | 2.32 ± 0.02 mPa·s and 2.32 ± 0.023 mPa·s and 2.259 ± 0.052 mPa·s
318 K, 101 kPa | 1.947 ± 0.05 mPa·s
318 K, 101.3 kPa | 1.947 ± 0.019 mPa·s
318.15 K, 101 kPa | 2.038 ± 0.047 mPa·s
323.1 K, 101 kPa | 2.015 ± 0.069 mPa·s
323.15 K, 101 kPa | 1.871 ± 0.019 mPa·s

CCCCCCCC(=O)O
Settings | viscosity [mPa·s]
298.15 K, 101 kPa | 5.16 ± 0.13

CC(C)C(C)O (stereo not drawn)
101.33 kPa
Settings | viscosity [mPa·s]
303.15 K | 3.163 ± 0.037
313.15 K | 2.185 ± 0.026
323.15 K | 1.573 ± 0.019

OCCc1ccccc1
viscosity
Settings | 298.15 K | 303.15 K | 308.15 K | 313.15 K
100 kPa | – | 9.05 ± 0.25 mPa·s and 9.027 ± 0.54 mPa·s | 7.653 ± 0.46 mPa·s | 6.335 ± 0.38 mPa·s
101 kPa | 10.9 ± 0.09 mPa·s | – | – | –

Clc1ccccc1Cl
viscosity
Settings | 298.15 K | 303.15 K | 308.15 K | 313.15 K | 318.15 K
100 kPa | – | 1.238 ± 0.01 mPa·s | 1.146 ± 0.01 mPa·s | 1.054 ± 0.009 mPa·s | 0.974 ± 0.009 mPa·s
101 kPa | 1.22 ± 0.011 mPa·s | 1.129 ± 0.01 mPa·s and 1.22 ± 0.015 mPa·s | 1.058 ± 0.0098 mPa·s and 1.148 ± 0.013 mPa·s | 0.9857 ± 0.0094 mPa·s and 1.054 ± 0.21 mPa·s | 0.974 ± 0.19 mPa·s

N#CCCl
101 kPa
Settings | viscosity [mPa·s]
293.15 K | 0.938 ± 0.025
298.15 K | 0.863 ± 0.023
303.15 K | 0.798 ± 0.021
313.15 K | 0.714 ± 0.019
323.15 K | 0.616 ± 0.016

C1COCOC1
101 kPa
Settings | viscosity [mPa·s]
298.15 K | 1.057 ± 0.028
313.15 K | 0.8452 ± 0.022

CC(C)c1ccccc1
viscosity
Settings | 293.15 K | 298.15 K | 303.15 K | 308.15 K | 313.15 K | 318.15 K | 323.15 K
100 kPa | – | 0.772 ± 0.008 mPa·s | – | 0.692 ± 0.007 mPa·s | – | 0.623 ± 0.006 mPa·s | –
101 kPa | 0.779 ± 0.013 mPa·s | 0.7314 ± 0.019 mPa·s and 0.731 ± 0.019 mPa·s | 0.68 ± 0.01 mPa·s and 0.6881 ± 0.0057 mPa·s | 0.6366 ± 0.017 mPa·s and 0.636 ± 0.016 mPa·s and 0.6488 ± 0.0054 mPa·s | 0.608 ± 0.011 mPa·s and 0.607 ± 0.011 mPa·s and 0.6116 ± 0.0051 mPa·s | 0.5767 ± 0.0049 mPa·s | 0.5447 ± 0.0046 mPa·s

CCCOC(=O)c1ccccc1
viscosity [mPa·s]
Settings | 293.15 K | 298.15 K | 303.15 K | 308.15 K | 313.15 K | 318.15 K | 323.15 K
101 kPa | – | 2.357 ± 0.075 | – | 1.905 ± 0.061 | – | 1.574 ± 0.05 | –
101.33 kPa | 2.586 ± 0.015 | – | 2.013 ± 0.012 | – | 1.604 ± 0.01 | – | 1.301 ± 0.008

CCCN(CCC)C(C)=O
Settings | viscosity [mPa·s]
298.16 K, 101 kPa | 2.204 ± 0.02

CN1CCCN(C)C1=O
viscosity [mPa·s]
Settings | 293.15 K | 298.15 K | 303.15 K | 308.15 K | 313.15 K | 318.15 K | 323.15 K
100 kPa | 3.514 ± 0.14 | 3.11 ± 0.13 | 2.779 ± 0.11 | 2.501 ± 0.1 | 2.266 ± 0.093 | 2.064 ± 0.085 | 1.891 ± 0.077
101 kPa | – | 2.95 ± 0.02 | – | – | – | – | –

CCCN
Settings | viscosity
293.15 K, 101.3 kPa | 0.359 ± 0.01 mPa·s
298.15 K, 100 kPa | 0.365 ± 0.0042 mPa·s
298.15 K, 101.3 kPa | 0.342 ± 0.01 mPa·s
298.15 K, 101.33 kPa | 0.356 ± 0.004 mPa·s
303.15 K, 101 kPa | 0.3468 ± 0.005 mPa·s and 0.3479 ± 0.005 mPa·s
303.15 K, 101.33 kPa | 0.3479 ± 0.005 mPa·s and 0.3512 ± 0.0032 mPa·s
308.15 K, 101 kPa | 0.2998 ± 0.011 mPa·s
308.15 K, 101.33 kPa | 0.328 ± 0.004 mPa·s
313.15 K, 101.33 kPa | 0.3123 ± 0.003 mPa·s
318.15 K, 101.33 kPa | 0.291 ± 0.003 mPa·s

C=COC(C)=O
Settings | viscosity [mPa·s]
303.15 K, 101.33 kPa | 0.372 ± 0.003

CCC(CC)CO
Settings | viscosity
298.15 K, 101.33 kPa | 5.819 ± 0.053 mPa·s and 5.819 ± 0.05 mPa·s

CCCCOC(C)=O
viscosity
Settings | 293.15 K | 298.15 K | 308.15 K | 313.15 K | 318.15 K | 323.15 K
100 kPa | 0.73 ± 0.09 mPa·s | 0.683 ± 0.082 mPa·s | – | 0.55 ± 0.07 mPa·s | 0.51 ± 0.06 mPa·s | 0.465 ± 0.056 mPa·s
101 kPa | 0.724 ± 0.0075 mPa·s and 0.724 ± 0.007 mPa·s | – | – | – | 0.524 ± 0.011 mPa·s and 0.5262 ± 0.0061 mPa·s | 0.507 ± 0.007 mPa·s
101.33 kPa | 0.735 ± 0.025 mPa·s | – | 0.592 ± 0.008 mPa·s and 0.593 ± 0.016 mPa·s and 0.584 ± 0.004 mPa·s | 0.557 ± 0.008 mPa·s and 0.565 ± 0.02 mPa·s | 0.524 ± 0.008 mPa·s | –

CCCCCCCCCCCCCCCCCCCC
Settings | viscosity [mPa·s]
313.2 K, 101.3 kPa | 4.01 ± 0.045

Oc1ccccc1Cl + C1COCCO1
[1], 101 kPa
Settings | viscosity [mPa·s]
298.15 K, x1 = 0.2 | 1.965 ± 0.12
298.15 K, x1 = 0.4 | 3.235 ± 0.064
298.15 K, x1 = 0.6 | 5.018 ± 0.05
298.15 K, x1 = 0.8 | 5.556 ± 0.085
308.15 K, x2 = 0.1 | 2.996 ± 0.037
308.15 K, x2 = 0.2 | 3.489 ± 0.043
308.15 K, x2 = 0.4 | 3.32 ± 0.041
308.15 K, x2 = 0.5 | 2.866 ± 0.035
308.15 K, x2 = 0.6 | 2.311 ± 0.029
308.15 K, x2 = 0.7 | 1.849 ± 0.023
308.15 K, x2 = 0.8 | 1.478 ± 0.019
308.15 K, x2 = 0.9 | 1.182 ± 0.015

CCCCOC(C)=O + CCCCCCC
[1], 298.15 K, 101.3 kPa
Settings | viscosity [mPa·s]
x1 = 0.0364 | 0.4006 ± 0.004
x1 = 0.1529 | 0.4135 ± 0.0041
x1 = 0.2504 | 0.4295 ± 0.0042
x1 = 0.3266 | 0.4449 ± 0.0043
x1 = 0.4281 | 0.4667 ± 0.0045
x1 = 0.5399 | 0.4974 ± 0.0048
x1 = 0.6531 | 0.5328 ± 0.005
x1 = 0.7531 | 0.5696 ± 0.0053
x1 = 0.8609 | 0.6155 ± 0.0057
x1 = 0.9693 | 0.6674 ± 0.0061

Cn1c(=O)c2c(ncn2C)n(C)c1=O + OCCO
viscosity [mPa·s], [1], 100 kPa
Settings | 293.15 K | 298.15 K | 303.15 K | 308.15 K | 313.15 K | 318.15 K | 323.15 K
x1 = 0.00056 | 20.79 ± 0.15 | 16.86 ± 0.12 | 13.79 ± 0.099 | 11.41 ± 0.082 | 9.55 ± 0.069 | 8.092 ± 0.058 | 6.902 ± 0.05
x1 = 0.00112 | 20.75 ± 0.15 | 16.8 ± 0.12 | 13.77 ± 0.099 | 11.36 ± 0.082 | 9.528 ± 0.069 | 8.07 ± 0.058 | 6.89 ± 0.05
x1 = 0.00166 | 20.69 ± 0.15 | 16.76 ± 0.12 | 13.72 ± 0.098 | 11.34 ± 0.081 | 9.492 ± 0.068 | 8.048 ± 0.058 | 6.866 ± 0.05
x1 = 0.00222 | 20.64 ± 0.15 | 16.71 ± 0.12 | 13.67 ± 0.098 | 11.3 ± 0.081 | 9.464 ± 0.068 | 8.019 ± 0.058 | 6.833 ± 0.05
x1 = 0.00285 | 20.57 ± 0.15 | 16.66 ± 0.12 | 13.63 ± 0.098 | 11.27 ± 0.081 | 9.426 ± 0.068 | 7.982 ± 0.058 | 6.805 ± 0.049
x1 = 0.00335 | 20.53 ± 0.16 | 16.63 ± 0.12 | 13.59 ± 0.1 | 11.23 ± 0.082 | 9.403 ± 0.069 | 7.965 ± 0.058 | 6.785 ± 0.05
